The results in this text go back to ChEMBL document CHEMBL1127942, “Phenol based tripeptide inhibitors of ras farnesyl protein transferase” (Bioorg Med Chem Lett, 1994).

Each structure is given as a SMILES string.

The test addresses Protein farnesyltransferase (Homo sapiens, UniProt P49354+P49356). In words: Inhibition of Protein farnesyltransferase (FPT). It is filed as protein-complex assay. The note with it: read-out: I50.
`CC(C)C[C@H](NC(=O)[C@@H](NC(=O)CCS)C(C)C)C(=O)N[C@@H](CO)C(=O)O`: the IC50 amounted to 1 µM.
Consider `CC(C)C[C@H](NC(=O)[C@@H](NC(=O)c1ccc(OCc2ccccc2)cc1)C(C)C)C(=O)N[C@@H](CO)C(=O)O`, for which the IC50 was determined as 166 µM.
For `CC(C)C[C@H](NC(=O)[C@@H](NC(=O)c1ccc(O)cc1)C(C)C)C(=O)N[C@@H](CO)C(=O)O` the value was > 360 µM; for `CC(C)C[C@H](NC(=O)[C@@H](NC(=O)c1cc(O)ccc1OCc1ccccc1)C(C)C)C(=O)N[C@@H](CO)C(=O)O`, 137 µM; for `CC(C)C[C@H](NC(=O)[C@@H](NC(=O)c1ccccc1OCc1ccccc1)C(C)C)C(=O)N[C@@H](CO)C(=O)O`, 63 µM.
`CC(C)C[C@H](NC(=O)[C@@H](NC(=O)c1cccc(O)c1)C(C)C)C(=O)N[C@@H](CO)C(=O)O`: the IC50 came out at 29 µM.
Turning to `CC(C)C[C@H](NC(=O)[C@@H](NC(=O)c1ccccc1O)C(C)C)C(=O)N[C@@H](CO)C(=O)O`, the IC50 is > 360 µM.
Consider `CC(C)C[C@H](NC(=O)[C@@H](NC(=O)c1cccc(OCc2ccccc2)c1O)C(C)C)C(=O)N[C@@H](CO)C(=O)O`, for which the IC50 was > 360 µM.
Take `CC(C)C[C@H](NC(=O)[C@@H](NC(=O)c1cccc(O)c1OCc1ccccc1)C(C)C)C(=O)N[C@@H](CO)C(=O)O`: the IC50 was 157 µM.
Take `CC(C)C[C@H](NC(=O)[C@@H](NC(=O)[C@@H](N)CO)C(C)C)C(=O)N[C@@H](CO)C(=O)O`: the IC50 is > 360 µM.
Regarding `CC(C)C[C@H](NC(=O)[C@@H](NC(=O)c1cccc(OCc2ccccc2)c1)C(C)C)C(=O)N[C@@H](CO)C(=O)O`, the IC50 is > 360 µM.
